PubChem BioAssay AID2388 (Broad Institute, 2010)
Calls of active or inactive are those of the source.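 The calls were made as follows: active = fitted EC50 no more than ten times the top tested dose; inconclusive = flat fit with 30% to 70% inhibition, or a poor fit; inactive = EC50 beyond ten times the top tested dose.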

Tested on: S. cerevisiae CDRE-lacZ reporter, CaCl2, luminescence
Experiment: calcineurin pathway inhibitors in yeast reporter, dose response, S. cerevisiae, CDRE-lacZ, luminescence, secondary (AID 2388)

EC50 | SMILES
> 18 µM (inactive) | CC1CCC(C(C)C)C(OC(=O)Cn2c(-c3ccc(Br)cc3)[n+](C)c3ccccc32)C1 (configuration not stated)
> 18 µM (inactive) | NC(=NCCCCCCN=C(N)/N=C(\N)Nc1ccc(Cl)cc1)/N=C(\N)Nc1ccc(Cl)cc1
